Source: PubChem BioAssay (NCI)
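Five concentrations, 48 hours, 96-well plates. GI50 is the concentration that inhibits growth by half. TGI is the concentration that stops growth completely.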

Columns and labels:
Assay in all cases: inhibition of tumour cell growth, NCI panel, 48 h
HOP-62 NSCLC = tested on: HOP-62 NSCLC
MALME-3M melanoma = tested on: MALME-3M melanoma
KM12 colon = tested on: KM12 colon
SW-620 colon = tested on: SW-620 colon
CCRF-CEM leukemia = tested on: CCRF-CEM leukemia
K-562 leukemia = tested on: K-562 leukemia
SF-539 CNS = tested on: SF-539 CNS
SN12C renal = tested on: SN12C renal
SNB-75 CNS = tested on: SNB-75 CNS
MCF7 breast = tested on: MCF7 breast

Molecule N#CC1(C#N)C=CC(=C2OCC3CCCN23)C=C1 (stereo unspecified) has a TGI (HOP-62 NSCLC) of over 100 µM, a TGI (MALME-3M melanoma) of over 100 µM and a TGI (KM12 colon) of over 100 µM. It also gave a TGI (SW-620 colon) of over 100 µM, a TGI (CCRF-CEM leukemia) of over 100 µM and a TGI (K-562 leukemia) of over 100 µM. For the same molecule, the TGI (SF-539 CNS) was over 100 µM, the TGI (SN12C renal) was over 100 µM and the TGI (SNB-75 CNS) was over 100 µM.

In the case of O=C(Nc1ccc(Cl)cc1C(=O)O)c1ccc([N+](=O)[O-])cc1, the TGI (HOP-62 NSCLC) is reported as 39.2 µM, the TGI (MALME-3M melanoma) is reported as 25.7 µM and the TGI (KM12 colon) is reported as 36.2 µM. For the same molecule, the TGI (SW-620 colon) was over 100 µM, the TGI (CCRF-CEM leukemia) was 67.4 µM and the TGI (K-562 leukemia) was 90.4 µM. For the same molecule, the TGI (SF-539 CNS) was 37.5 µM, the TGI (SN12C renal) was over 100 µM and the TGI (SNB-75 CNS) was over 100 µM.

CCC(C)C1=C(O)[N+]2([O-])Oc3ccc(C4=C(O)C(=O)C(c5ccc(O)cc5)=C(O)C4=O)cc3OC2(C(C)CC)C(=O)N1O (stereo unspecified) was tested, and the GI50 (HOP-62 NSCLC) was 9.94 µM, the TGI (HOP-62 NSCLC) was over 100 µM and the GI50 (MALME-3M melanoma) was 14.7 µM. The TGI (MALME-3M melanoma) was 48.2 µM, the GI50 (KM12 colon) was 40.3 µM and the TGI (KM12 colon) was over 100 µM. It also gave a GI50 (SW-620 colon) of 25.4 µM, a TGI (SW-620 colon) of over 100 µM and a GI50 (CCRF-CEM leukemia) of 13.1 µM. The TGI (CCRF-CEM leukemia) was 76.7 µM, the GI50 (K-562 leukemia) was 8.03 µM and the TGI (K-562 leukemia) was over 100 µM. It also gave a GI50 (SF-539 CNS) of 15.8 µM, a TGI (SF-539 CNS) of over 100 µM and a GI50 (MCF7 breast) of 4.25 µM. It also gave a TGI (MCF7 breast) of over 100 µM, a GI50 (SNB-75 CNS) of over 100 µM and a TGI (SNB-75 CNS) of over 100 µM.

CCOC(=N)CC(=O)Nc1ccccc1 gave a TGI (HOP-62 NSCLC) of over 46.4 µM, a TGI (MALME-3M melanoma) of over 46.4 µM and a TGI (KM12 colon) of over 46.4 µM. The TGI (SW-620 colon) was over 67.6 µM, the TGI (CCRF-CEM leukemia) was over 31.6 µM and the TGI (K-562 leukemia) was over 31.6 µM. The TGI (SF-539 CNS) was over 46.4 µM, the TGI (SN12C renal) was over 46.4 µM and the TGI (SNB-75 CNS) was over 46.4 µM.

With COCCc1n(Cc2ccc3ccccc3c2)c2ccccc2[n+]1Cc1ccc2ccccc2c1 the GI50 (HOP-62 NSCLC) was 1.26 µM, the TGI (HOP-62 NSCLC) was 2.73 µM and the GI50 (MALME-3M melanoma) was 0.443 µM. For the same molecule, the TGI (MALME-3M melanoma) was 1.72 µM, the GI50 (KM12 colon) was 0.415 µM and the TGI (KM12 colon) was 1.64 µM. For the same molecule, the GI50 (SW-620 colon) was 1.11 µM and the TGI (SW-620 colon) was 2.59 µM.

Molecule O=C(Nc1ccccc1)OC1OC(COC(=O)c2ccccc2)C(OC(=O)c2ccccc2)C1OS(=O)(=O)c1ccc([N+](=O)[O-])cc1 (stereo unspecified) has a TGI (HOP-62 NSCLC) of over 100 µM, a TGI (MALME-3M melanoma) of over 100 µM and a TGI (KM12 colon) of over 100 µM. It also gave a TGI (SW-620 colon) of over 100 µM, a TGI (CCRF-CEM leukemia) of over 100 µM and a TGI (K-562 leukemia) of over 100 µM. The TGI (SF-539 CNS) was over 100 µM, the TGI (SN12C renal) was over 100 µM and the TGI (MCF7 breast) was over 100 µM.

In the case of O=C(CC1C(=O)Nc2ccccc2S1(=O)=O)Nc1ccc(Cl)cc1 (stereo unspecified), the TGI (MALME-3M melanoma) is reported as 86.9 µM, the TGI (SW-620 colon) is reported as over 100 µM and the TGI (CCRF-CEM leukemia) is reported as 77.7 µM. For the same molecule, the TGI (K-562 leukemia) was 48.9 µM, the TGI (SF-539 CNS) was 29.7 µM and the TGI (SN12C renal) was over 100 µM. It also gave a TGI (SNB-75 CNS) of 37.6 µM.

CCCCCCCCCCCCN=C(N)c1ccc(N2CCN(c3ccc(C(N)=NCCCCCCCCCCCC)cc3)CC2)cc1 gave a GI50 (HOP-62 NSCLC) of 6.96 µM, a TGI (HOP-62 NSCLC) of 14.6 µM and a GI50 (KM12 colon) of 11.7 µM. The TGI (KM12 colon) was 25.1 µM, the GI50 (SW-620 colon) was 9.31 µM and the TGI (SW-620 colon) was 28.1 µM. It also gave a GI50 (CCRF-CEM leukemia) of 1.56 µM, a TGI (CCRF-CEM leukemia) of 10.9 µM and a GI50 (K-562 leukemia) of 6.82 µM. For the same molecule, the TGI (K-562 leukemia) was over 50 µM, the GI50 (SN12C renal) was 8.99 µM and the TGI (SN12C renal) was 18.7 µM.

With CC(=O)NNc1nc(C)c(C(=O)NNC(=O)C(=O)Nc2c([N+](=O)[O-])ccc(C)c2C)s1 the TGI (HOP-62 NSCLC) was over 100 µM, the TGI (MALME-3M melanoma) was over 100 µM and the TGI (KM12 colon) was over 100 µM. For the same molecule, the TGI (SW-620 colon) was over 100 µM, the TGI (CCRF-CEM leukemia) was over 100 µM and the TGI (K-562 leukemia) was over 100 µM. It also gave a TGI (SF-539 CNS) of over 100 µM and a TGI (SN12C renal) of over 100 µM.

Work on CCCCCCCCCCCCCCCC(=O)OCCOCCOCCOCCOCCOC(=O)CCCCCCCCCCCCCCC yielded a TGI (HOP-62 NSCLC) of over 100 µM, a TGI (MALME-3M melanoma) of over 100 µM and a TGI (KM12 colon) of over 100 µM. The TGI (SW-620 colon) was over 100 µM, the TGI (CCRF-CEM leukemia) was over 100 µM and the TGI (K-562 leukemia) was over 100 µM. It also gave a TGI (SN12C renal) of over 100 µM.
